# “Also recorded” adds a separate entry of the source.
# Key:
# Sprague-Dawley rats = experiment: Bronchoalveolar lavage fluid (BALF) analysis after acute inhalation; format: in vivo, rat
# Protocol: The inhalation aerosols of the DGH solutions were generated using an atomizer with a clean air flow of 250 L/min. […] In the acute toxicity test, all the rats in each group were sacrificed immediately after exposure. Temperature, humidity, air flow, and air pressure were monitored during the exposure using a Model VT3-X15 environmental controller (Sibata, Saitama, Japan). The concentration of DGH was analyzed by sampling the chamber air using a SIP-32L (Sibata, Saitama, Japan) and measuring the weight of the membranes (T60A20, Φ55). The mass median aerodynamic diameter (MMAD) and geometric standard deviation (GSD) of DGH in the exposure chamber were measured using an Andersen cascade impactor (AN-200, Sibata, Saitama, Japan).
# BALF was obtained from the right lung by lavage (twice) with 3 mL phosphate buffered saline (PBS, pH 7.4, magnesium, and calcium free). The BALF samples were centrifuged (1500 rpm, 4 °C, 10 min) and the cell-free supernatant of the first lavage was used for the determination of LDH, total protein, and inflammatory cytokine levels. LDH activity was measured using the EZ-LDH kit (DoGenBio, Seoul, Korea). Total protein content was quantified using a BCA protein assay kit (iNtRON Biotechnology, Seoul, Korea). To evaluate the inflammatory cytokine levels in BALF, tumor necrosis factor-alpha (TNF-α), interleukin-6 (IL-6), interleukin-1 beta (IL-1β), […], and transforming growth factor-beta 1 (TGF-β1) were determined using a Quantikine® enzyme-linked immunosorbent assay kit (R&D Systems, Minneapolis, MN, USA), according to the manufacturer’s instructions. Cells in all lavages were resuspended in PBS, and the total cell count in BALF was quantified using a Vi-Cell® XR analyzer (Beckman Coulter, Brea, CA, USA). Differential cell counts were performed on cytospin preparations (Shadon, Pittsburgh, PA, USA), and the cells were stained with Diff-Quick (Fisher Scientific, Swedesboro, NJ, USA). Polymorphonuclear leukocytes (PMNs) in the BALF were counted using light microscopy (Olympus, Tokyo, Japan).
# A549 cells [1] = experiment: cells; format: cell-based, Human; details: 24 h exposure, WST assay
# Protocol: (§1) Human adenocarcinomic alveolar epithelial (A549) cells were obtained from the Korea Cell Line Bank (Seoul, Korea). Cells were grown in RPMI 1640 medium (Thermo Fisher Scientific, Waltham, MA, USA), containing 10% heat-inactivated fetal bovine serum (Thermo Fisher Scientific, Waltham, MA, USA) and 1% penicillin-streptomycin (Thermo Fisher Scientific, Waltham, MA, USA) under standard cell culture conditions (37 °C, 5% CO2, and 90% humidity).
# (§2) A549 cells (1 × 10^4 cells) were incubated in 96-well plates overnight, and various concentrations (1, 10, 100, 1000, and 5000 μg/mL) of the eight selected chemicals were added to the cell culture medium. After 24 h of incubation, cell morphology was observed by optical microscopy, and cell viability was evaluated using EZ-Cytox kit (DoGenBio, Seoul, Korea) by quantifying purple formazan crystals. The membrane integrity was examined using an EZ-lactate dehydrogenase (LDH) kit (DoGenBio, Seoul, Korea) to measure the LDH level released from the cytosol into the culture medium. Absorbance was measured using a microplate reader (Tecan, Salzburg, Austria) at a wavelength of 450 nm.
# A549 cells [2] = experiment: Cell membrane damage (LDH leakage) assay; format: cell-based, Human; details: 1–5000 μg/mL, 24 h
# Protocol: as §1, §2
# A549 cells [3] = experiment: Colony formation (clonogenic) assay; format: cell-based, Human; details: 10 days
# Protocol: A clonogenic assay was performed by modifying the method of Franken et al.. Briefly, the cells were incubated overnight in six-well plates, at a density of 200 cells per well. DGH (0.00313, 0.00625, 0.0125, 0.025, 0.05, 0.1, and 0.2 μg/mL) and CGP (0.313, 0.625, 1.25, 2.5, 5, 10, and 20 μg/mL) were incubated with the cells for ten days. After incubation, the medium was removed, the cells were washed with phosphate-buffered saline (PBS), fixed with methanol for 10 min on ice, and stained with crystal violet (0.5% crystal violet in 20% methanol). The number of colonies was quantified using light microscopy (Olympus Co., Tokyo, Japan).
# [4] = male rats, exposure groups, 4 h
# [5] = rats, 8.6–68 mg/m^3, 4 h, vs control
smiles,measurement,setting,value
"CCCCCCCCCCCCN=C(N)N.Cl [DGH, Dodecylguanidine hydrochloride]",IL-6 level in BALF compared to control groups,Sprague-Dawley rats; [4],about seven times
same,MIP-2 level in BALF compared to control groups,Sprague-Dawley rats; [4],about five times
same,Increase of ratio of PMNs in BALF,"Sprague-Dawley rats; male rats, high 68 mg/m^3, 4 h",> 204 fold
same,Increase of ratio of PMNs in BALF,"Sprague-Dawley rats; male rats, middle 21.3 mg/m^3, 4 h",more than 38.7 fold
same,"Cytokines (MIP-2, TGF-β1, IL-1β, TNF-α, IL-6) in BALF","Sprague-Dawley rats; rats, 8.6–68 mg/m^3, 4 h",increased in a concentration-dependent manner
same,LDH in BALF,Sprague-Dawley rats; [5],increased in a concentration-dependent manner; also recorded: significantly increased in all the exposed groups
same,PMNs in BALF,Sprague-Dawley rats; [5],increased in a concentration-dependent manner; also recorded: significant increase
same,Total protein in BALF,Sprague-Dawley rats; [5],significantly increased in all the exposed groups
same,IC50 (half inhibitory concentration by cell viability assay),A549 cells [1],0.39 µg/mL
same,Cell membrane damage (LDH leakage),A549 cells [2],significant dose-dependent damage to the cell membrane
same,Total number of colonies,"A549 cells [3]; DGH 0.00313–0.2 μg/mL, CGP 0.313–20 μg/mL",dramatic decrease
same,Reduction in colony formation compared to the control,A549 cells [3]; DGH 0.025 μg/mL,approximately 50%

# Source: PMC7560342, “In Vitro and In Vivo Evaluation of the Toxic Effects of Dodecylguanidine Hydrochloride” (Toxics, 2020)
